# Results from patent publication US7452997B2 (priority 2004, dated 2008).
# Target: human CB2 receptor (Homo sapiens, UniProt P34972)
# Experiment: Binding assay, cannabinoid CB2 receptor ([3H]-CP-55,940 displacement)
# Details: Cannabinoid CB2 Receptor Binding IC50, human CB2 receptor, SK-N-MC cell membranes, radioligand CP-55,940 0.2 nM
# Procedure: (§1) Binding Assay for CB1 or CB2 Agonists or Inverse Agonists
# (§2) The human CB1 and CB2 receptors were stably expressed in SK-N-MC cells transfected with pcDNA3 CB-1 (human) or pcDNA3 CB-2 (human). The cells were grown in T-180 cell culture flasks under standard cell culture conditions at 37° C. in a 5% CO2 atmosphere. The cells were harvested by trysinization and homogenized in a homogenization buffer (10 mM Tris, 0.2 mM MgCl2, 5 mM KCl, with protease inhibitors aprotinin, leupeptin, pepstatin A and bacitracin) and centrifuged (2000 g). The supernatant was then centrifuged in 2M sucrose (31,300 g) to produce a semi-purified membrane pellet. The pellet was resuspended in homogenization and store at −80° C.
# (§3) On the day of the assay, the pellet was thawed on ice and diluted in assay buffer (50 mM Tris-HCl, 5 mM MgCl2, 2.5 mM EDTA, 0.5 mg/mL fatty acid free bovine serum albumin, pH 7.5). The diluted membrane was added with buffer, test compound or standard and the radioligand [H]^3+-CP-55,940_(0.2 nM) to the wells of a 96-well polypropylene plate. Non-specific binding was measured in wells containing 10 uM WIN 55,212. The plate was covered and incubated for 90 minutes at 30° C. The contents were then aspirated onto a Packard UNIFILTER GF/C filter bottom plate prewet with 0.5% polyethyleneimine. The wells of the polypropylene plate were rinsed and aspirated seven times with a 0.9% saline-0.5% TWEEN 20 solution. The UNIFILTER plate was dried, a scintillation cocktail was added to each well and the counts representing binding were quantitated in a TOPCOUNT scintillation counter.
# (§4) The IC50 binding values for compounds tested were calculated by linear regression and were obtained from studies in which varying compound concentrations were used.
# Sequence of human CB2 receptor (P34972 whole entry): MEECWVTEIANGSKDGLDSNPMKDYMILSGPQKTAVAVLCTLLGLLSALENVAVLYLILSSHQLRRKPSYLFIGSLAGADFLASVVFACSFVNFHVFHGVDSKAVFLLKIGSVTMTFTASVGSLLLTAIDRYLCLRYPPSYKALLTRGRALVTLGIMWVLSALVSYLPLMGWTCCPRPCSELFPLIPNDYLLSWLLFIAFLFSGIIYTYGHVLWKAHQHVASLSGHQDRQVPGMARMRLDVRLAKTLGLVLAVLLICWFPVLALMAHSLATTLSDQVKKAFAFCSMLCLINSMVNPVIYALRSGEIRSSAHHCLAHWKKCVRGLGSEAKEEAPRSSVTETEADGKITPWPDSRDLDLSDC
row,Structure (SMILES),IC50
1,CCOC(=O)[C@H]1C2CCC(C2)[C@H]1NC(=O)c1nn(-c2ccc(F)cc2)c2c1CCCC2CC (some centres unmarked) [compound 191],190 nM
2,CC(NC(=O)c1nn(Cc2ccccc2)c2c1CC(C(=O)O)CC2)C12CC3CC(CC(C3)C1)C2 (centres unmarked) [compound 166],1700 nM
3,CCOC(=O)c1c(NC(=O)c2nn(C3CCCCC3)c3c2CCCC3)sc2c1CCCCC2 [compound 55],7900 nM
4,CCOC(=O)C1CCc2c(c(C(=O)NCC34CC5CC(CC(C5)C3)C4)nn2-c2ccccc2)C1 (centres unmarked) [compound 117],370 nM

# Target: T1, human CB1 receptor (Homo sapiens, UniProt P21554)
# T1 construct: expressed in transfected cells; host or cells: SK-N-MC cells, stably transfected with pcDNA3 CB-1 (human); semi-purified membrane pellet
# T1 sequence (P21554 whole entry): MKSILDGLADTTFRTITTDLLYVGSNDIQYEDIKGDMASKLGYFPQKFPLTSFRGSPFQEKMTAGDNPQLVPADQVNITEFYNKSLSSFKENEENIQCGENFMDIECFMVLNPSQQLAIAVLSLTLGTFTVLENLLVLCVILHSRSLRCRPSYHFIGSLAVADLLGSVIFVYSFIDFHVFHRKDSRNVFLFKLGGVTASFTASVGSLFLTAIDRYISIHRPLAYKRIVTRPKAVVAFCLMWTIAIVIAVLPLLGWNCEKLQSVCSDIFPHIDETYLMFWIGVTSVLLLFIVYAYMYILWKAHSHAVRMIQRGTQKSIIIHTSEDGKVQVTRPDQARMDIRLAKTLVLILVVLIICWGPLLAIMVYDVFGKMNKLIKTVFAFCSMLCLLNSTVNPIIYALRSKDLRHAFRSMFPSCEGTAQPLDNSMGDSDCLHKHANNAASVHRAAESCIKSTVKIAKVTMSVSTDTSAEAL
# Experiment: biochemical
# Type: binding
# Details: not given
# Procedure: as §1, §2
# as §3, with “The diluted membrane was added with buffer, test compound or standard and the radioligand [H]^3+-CP-55,940_(0.2 nM) to the wells of a 96-well polypropylene plate. Non-specific binding was measured in wells containing 10 uM WIN 55,212.” left out, “UNIFILTER” left out
# as §4
row,Structure (SMILES),IC50
1,CC(C)(C)C1CCc2c(c(C(=O)NCC34CC5CC(CC(C5)C3)C4)nn2C2CCCCC2)C1 (centres unmarked) [compound 102],30900 nM
2,O=C(NN1CCCCCC1)c1nn(-c2ccc(Cl)cc2Cl)c2c1CCC/C2=C\c1ccc(Cl)s1 [compound 388],15 nM
3,O=C(N[C@H](CO)c1ccccc1)c1nn(-c2ccc(Cl)cc2Cl)c2c1CCCC2=Cc1ccsc1 [compound 356],77 nM
4,C[C@@H](NC(=O)c1nn(-c2ccc(Cl)cc2Cl)c2c1CCC/C2=C\c1ccc(Br)cc1)c1ccccn1 [compound 381],15 nM
5,O=C(NN1CCCC1)c1nn(-c2ccc(Cl)cc2Cl)c2c1CCCC2=Cc1ccoc1 [compound 368],39 nM
6,O=C(NN1CC2CCCC2C1)c1nn(-c2ccc(Cl)cc2Cl)c2c1CCC/C2=C\c1ccoc1 (centres unmarked) [compound 365],16 nM
7,O=C(NN1CCCCCC1)c1nn(-c2ccc(Cl)cc2Cl)c2c1CCCC2=Cc1ccco1 [compound 373],20 nM
8,O=C(NCCN1CCOCC1)c1nn(Cc2ccccc2)c2c1CCCC2 [compound 175],2160 nM
9,CC(C)(C)OC(=O)NC1CCc2nn(C3CCCCC3)c(C(=O)NC3C4CC5CC(C4)CC3C5)c2C1 (centres unmarked) [compound 84],400 nM
10,C[C@@H](NC(=O)c1nn(-c2ccc(Cl)cc2Cl)c2c1CCCC2=Cc1ccoc1)C1CCCCC1 [compound 360],12 nM
11,C[C@@H](NC(=O)c1nn(-c2ccc(Cl)cc2Cl)c2c1CCCC2=Cc1ccco1)c1ccccc1 [compound 371],39 nM
12,O=C(NN1CCCC1)c1nn(-c2ccc(Cl)cc2Cl)c2c1CCCC2=Cc1cccs1 [compound 345],70 nM
13,C[C@@H](NC(=O)c1nn(-c2ccc(Cl)cc2Cl)c2c1CCC/C2=C\c1ccsc1)c1ccccc1 [compound 353],16 nM
14,C[C@@H](NC(=O)c1nn(-c2ccc(Cl)cc2Cl)c2c1CCCC2=Cc1ccc(Br)o1)c1ccccc1 [compound 397],59 nM
15,CN(C)S(=O)(=O)NC1CCc2c(c(C(=O)NC3C4CC5CC(C4)CC3C5)nn2C2CCCCC2)C1 (centres unmarked) [compound 106],12700 nM
16,CC(C)(C)C1CCc2c(c(C(=O)NC3C4CC5CC(C4)CC3C5)nn2C2CCCCC2)C1 (centres unmarked) [compound 98],20500 nM
17,O=C(NN1CCCCCC1)c1nn(-c2ccc(Cl)cc2Cl)c2c1CCCC2=Cc1cccs1 [compound 343],37 nM
18,C[C@@H](NC(=O)c1nn(-c2ccc(Cl)cc2Cl)c2c1CCCC2=Cc1ccc(Cl)s1)C1CCCCC1 [compound 385],7 nM
19,CN(C(=O)NC1CCc2c(c(C(=O)NC3C4CC5CC(C4)CC3C5)nn2C2CCCCC2)C1)c1ccccc1 (centres unmarked) [compound 103],2000 nM
20,"CC12CCC(C1)C(C)(C)C2NC(=O)c1nn(C2CCCCC2)c2c1CC(=O)CC2 (centres unmarked) [Cpd 96, 1-cyclohexyl-5-oxo-4,5,6,7-tetrahydro-1H-indazole-3-carboxylic acid (1,3,3-trimethyl-bicyclo[2.2.1]hept-2-yl)-amide]",9500 nM
21,C[C@@H](NC(=O)c1nn(-c2ccc(Cl)cc2Cl)c2c1CCCC2=Cc1cccs1)C1CCCCC1 [compound 341],20 nM
22,O=C(NN1CCCCCC1)c1nn(-c2ccc(Cl)cc2Cl)c2c1CCC/C2=C\c1ccsc1 [compound 348],11 nM
23,C[C@@H](NC(=O)c1nn(-c2ccc(Cl)cc2Cl)c2c1CCC/C2=C\c1ccc(Br)o1)C1CCCCC1 [compound 398],48 nM
24,O=C(NN1CC2CCCC2C1)c1nn(-c2ccc(Cl)cc2Cl)c2c1CCC/C2=C\c1ccc(Cl)s1 (centres unmarked) [compound 390],20 nM
25,C[C@@H](NC(=O)c1nn(-c2ccc(Cl)cc2Cl)c2c1CCCC2=Cc1ccc(Br)cc1)C1CCCCC1 [compound 382],5 nM
26,CC1CCCC(C)N1NC(=O)c1nn(-c2ccc(Cl)cc2Cl)c2c1CCCC2=Cc1ccoc1 (centres unmarked) [compound 362],38 nM
27,O=C(NN1CCCC1)c1nn(-c2ccc(Cl)cc2Cl)c2c1CCCC2=Cc1ccsc1 [compound 357],21 nM
28,O=C(NN1CCCCC1)c1nn(-c2ccc(Cl)cc2Cl)c2c1CCC/C2=C\c1ccc(Cl)s1 [compound 387],33 nM

row,Structure (SMILES),IC50
1,O=C(NN1CCCCCC1)c1nn(-c2ccc(Cl)cc2Cl)c2c1CCC/C2=C\c1ccoc1 [compound 363],13 nM
2,O=C(NN1CC2CCCC2C1)c1nn(-c2ccc(Cl)cc2Cl)c2c1CCCC2=Cc1cccs1 (centres unmarked) [compound 346],33 nM
3,O=C(NN1CC2CCCC2C1)c1nn(-c2ccc(Cl)cc2Cl)c2c1CCC/C2=C\c1ccsc1 (centres unmarked) [compound 350],17 nM
4,O=C(NN1CC2CCCC2C1)c1nn(-c2ccc(Cl)cc2Cl)c2c1CCC/C2=C\c1ccco1 (centres unmarked) [compound 376],16 nM
5,O=C(NN1CC2CCCC2C1)c1nn(-c2ccc(Cl)cc2Cl)c2c1CCCC2=Cc1ccc(Br)cc1 (centres unmarked) [compound 380],32 nM
6,CC1CCCC(C)N1NC(=O)c1nn(-c2ccc(Cl)cc2Cl)c2c1CCCC2=Cc1cccs1 (centres unmarked) [compound 344],53 nM
7,O=C(NN1CCCCC1)c1nn(-c2ccc(Cl)cc2Cl)c2c1CCC/C2=C\c1ccoc1 [compound 364],16 nM
8,C[C@H](NC(=O)c1nn(-c2ccc(Cl)cc2Cl)c2c1CCCC2=Cc1ccc(F)cc1)c1ccccc1 [compound 308],19 nM
9,O=C(NC1C2CC3CC(C2)CC1C3)c1nn(C2CCCCC2)c2c1CC(C(=O)Nn1cnnc1)CC2 (centres unmarked) [compound 95],6400 nM
10,O=C(NN1CCCCC1)c1nn(-c2ccc(Cl)cc2Cl)c2c1CCC/C2=C\c1ccc(Br)cc1 [compound 384],21 nM
11,CC1CCCC(C)N1NC(=O)c1nn(-c2ccc(Cl)cc2Cl)c2c1CCC/C2=C\c1ccsc1 (centres unmarked) [compound 349],40 nM
12,C[C@@H](NC(=O)c1nn(-c2ccc(Cl)cc2Cl)c2c1CCC/C2=C\c1ccoc1)c1ccccc1 [compound 358],13 nM
13,O=C(NN1CCCCC1)c1nn(-c2ccc(Cl)cc2Cl)c2c1CCCC2=Cc1cccs1 [compound 342],41 nM
14,Cc1ccc(S(=O)(=O)NC2CCc3c(c(C(=O)NC4C5CC6CC(C5)CC4C6)nn3C3CCCCC3)C2)cc1 (centres unmarked) [compound 105],8500 nM
15,C[C@@H](NC(=O)c1nn(-c2ccc(Cl)cc2Cl)c2c1CCCC2=Cc1ccsc1)C1CCCCC1 [compound 351],12 nM
16,O=C(NN1CCCCC1)c1nn(-c2ccc(Cl)cc2Cl)c2c1CCCC2=Cc1ccsc1 [compound 347],18 nM
17,O=C(NN1CCCC1)c1nn(-c2ccc(Cl)cc2Cl)c2c1CCCC2=Cc1ccc(Cl)s1 [compound 393],43 nM
18,O=C(NN1CCCCC1)c1nn(-c2ccc(Cl)cc2Cl)c2c1CCC/C2=C\c1ccco1 [compound 374],19 nM
19,O=C(NC1CCCCCCC1)c1nn(C2CCCCC2)c2c1CCCC2 [compound 128],10 nM
20,O=C(NN1CCCCCC1)c1nn(-c2ccc(Cl)cc2Cl)c2c1CCCC2=Cc1ccc(F)cc1 [compound 339],8 nM
21,O=C(NC(Cc1ccc(OCc2ccccc2)cc1)C(=O)O)c1nn(Cc2ccccc2)c2c1CCCC2 (centres unmarked) [compound 76],1960 nM
22,O=C(NN1CCCC1)c1nn(-c2ccc(Cl)cc2Cl)c2c1CCC/C2=C\c1ccco1 [compound 377],43 nM
23,C[C@@H](NC(=O)c1nn(-c2ccc(Cl)cc2Cl)c2c1CCC/C2=C\c1ccc(Cl)s1)c1ccccc1 [compound 386],11 nM
24,CC1CCCC(C)N1NC(=O)c1nn(-c2ccc(Cl)cc2Cl)c2c1CCC/C2=C\c1ccc(Cl)s1 (centres unmarked) [compound 389],14 nM
25,"CC(c1ccccc1)n1nc(C(=O)N[C@@H](C)C2CCCCC2)c2c1CCCC2 (mixture of isomers) [Cpd 249, 1-(1-phenyl-ethyl)-4,5,6,7-tetrahydro-1H-indazole-3-carboxylic acid [(1S)-1-cyclohexyl-ethyl]-amide]",50 nM
26,C[C@@H](NC(=O)c1nn(-c2ccc(Cl)cc2Cl)c2c1CCCC2=Cc1ccc(Br)cc1)c1ccccc1 [compound 383],10 nM
27,O=C(N[C@@H]1C2CCC(C2)[C@@H]1COCc1ccccc1Br)c1nn(C2CCCCC2)c2c1CCCC2 (some centres unmarked) [compound 108],2400 nM
